Source: patent US20240261375A1, “PHARMACEUTICAL COMPOSITION FOR TREATING OR PREVENTING DISORDER ASSOCIATED WITH ADMINISTRATION OF ANTICANCER AGENT” (LTT BIO-PHARMA CO., LTD., priority 2021, published 2024)

Test system: Large intestine cancer cells (colo320, HCT116)
Test: Proliferation of large intestine cancer cells (CCK-8)
Format: cell-based
Details: OXA dilutions + PC-SOD 50 μg/mL, 72 hours; FIG. 6
Description: Large intestine cancer cells (colo320, HCT116) were added to RPM1640 medium (Thermo Fisher Scientific Inc.) containing 10% fetal bovine serum and 100 units/mL penicillin-streptomycin (Gibco BRL) and cultured at 37° C. in a 5% CO2 incubator.
Cells were seeded on a 96-well plate at 10 000 cells/well and treated with a test solution 24 hours later. A test solution containing OXA alone was diluted 3-fold from 100 μM (10 levels) and added to a 96-well plate. A test solution containing OXA+PC-SOD was obtained by adding the same concentrations of OXA to PC-SOD (50 μg/mL) (n=3 per group). After cells were cultured for 72 hours, a CCK-8 solution was added in a volume of 1/10 of the solution in each well, and the mixture was measured at 490 nm of absorbance (Tecan, Tecan Japan). Data were expressed with mean±standard error (SEM). It should be noted that experiment conditions were allowed to be changed as required.

Question: How did the “influence on the anti-tumor effect of oxaliplatin (cell proliferation)” value turn out when “lecithinized superoxide dismutase [PC-SOD]” was run?
Answer: The value was “did not affect the anti-tumor effect of oxaliplatin”.
